Measured values as given in patent US5086042A, “Peptides with sulfate ester groups” (Fisons Corporation, priority 1989, dated 1992).
Values joined by “and” are separate entries in the source; they are usually repeats but may differ in a detail not shown here. Identical values can stand only once.

System: Male Sprague-Dawley rats
Format: in vivo
Details: rat, intraperitoneal; for feeding inhibition during the 0.5 hour feeding period: 0.3 μg/kg; for feeding inhibition during the 3 hour feeding period: 3 μg/kg; for % FEEDING INHIBITION 0.5 hr / % FEEDING INHIBITION 3 hr: 30 μg/kg, vs saline controls; for feeding inhibition during the 0.5 hour feeding period / % FEEDING INHIBITION 0.5 hr: 0.5 hr feeding period; for feeding inhibition during the 3 hour feeding period / % FEEDING INHIBITION 3 hr: 3 hr feeding period; for % FEEDING INHIBITION 3 hr: IA means inactive
Method: The peptides of this invention have the ability to inhibit feeding activity in mammals. As a result they have utility in the prevention and treatment of obesity.
Male Sprague-Dawley rats (weighing 300-350 g) are individually caged and maintained on a 12 hr. light, dark cycle and trained for at least 14 days to feed during a three hr period of the dark cycle but not the 21 hours preceding that three hr period. The day of the study, rats are dosed intraperitoneally with saline (controls) or test compound (dissolved in saline; usually at a concentration of 0.3 to 300 micrograms of test compound per kg of rat weight). Food is introduced 10 minutes after administration of saline or test compound. […] The % feeding inhibition for the 1/2 hr and 3 hr feeding periods obtained by administering a dose of 30 μg/kg of test compound is given in Table 2 for CCK-8 and various compounds of the invention. For example, the % feeding inhibition obtained with CCK-8 (first line of Table 2) was 70% for the 1/2 hr feeding period and 25% for the 3-hour period.

| Substance | feeding inhibition during the 0.5 hour feeding period | feeding inhibition during the 3 hour feeding period | % FEEDING INHIBITION 0.5 hr | % FEEDING INHIBITION 3 hr |
| --- | --- | --- | --- | --- |
| Hpp(SO3 sH)-Ile-Gly-Trp-Ahx-Asp-MePhe-NH2 [Hpp(SO3 H)-Ile-Gly-Trp-Ahx-Asp-MePhe-NH2] | 20-72% | 50-90% | 98% | 100% |
| Suc-Tyr(SO3 H)-Ahx-Gly-Trp-Ahx-Asp-Phe-NH2 | 20-72% | 50-90% | 100% | 97% |
| Suc-Tyr(SO3 H)-Ile-Gly-Trp-Ahx-Asp-MePhe-NH2 | 20-72% | 50-90% and 90% | 100% | 100% |
| Suc-Tyr(SO3 ° H)-Ahx-Gly-Trp-Ahx-Asp-MePhe-NH2 | 20-72% | 50-90% | 100% | 98% |
| iBuOCO-Tyr(SO3 H)-Ahx-Gly-Trp-Ahx-Asp-MePhe-NH2 | 20-72% | 50-90% | 100% | 100% |
| iBuOCO-Tyr(SO3 H)-Ahx-Gly-Trp-Ahx-Asp-Phe-NH2 | 20-72% | 50-90% | 100% | 100% |
